Measurements as given in US11952363B2, “Piperazine compounds for the treatment of autoimmune disease” (Hoffmann-La Roche Inc., priority 2018, dated 2024).

How the values were obtained:
human TLR8 = biological target: T1, human TLR8 (Homo sapiens, UniProt Q9NR97); test: HEK293-Blue-hTLR-8 cells assay (SEAP reporter, R848 stimulation); format: cell-based; conditions: HEK293-Blue-hTLR8 cells, R848 ligand, 20 hrs incubation; read-out: HEK/hTLR8 IC50
T1 sequence (Q9NR97 27-1041): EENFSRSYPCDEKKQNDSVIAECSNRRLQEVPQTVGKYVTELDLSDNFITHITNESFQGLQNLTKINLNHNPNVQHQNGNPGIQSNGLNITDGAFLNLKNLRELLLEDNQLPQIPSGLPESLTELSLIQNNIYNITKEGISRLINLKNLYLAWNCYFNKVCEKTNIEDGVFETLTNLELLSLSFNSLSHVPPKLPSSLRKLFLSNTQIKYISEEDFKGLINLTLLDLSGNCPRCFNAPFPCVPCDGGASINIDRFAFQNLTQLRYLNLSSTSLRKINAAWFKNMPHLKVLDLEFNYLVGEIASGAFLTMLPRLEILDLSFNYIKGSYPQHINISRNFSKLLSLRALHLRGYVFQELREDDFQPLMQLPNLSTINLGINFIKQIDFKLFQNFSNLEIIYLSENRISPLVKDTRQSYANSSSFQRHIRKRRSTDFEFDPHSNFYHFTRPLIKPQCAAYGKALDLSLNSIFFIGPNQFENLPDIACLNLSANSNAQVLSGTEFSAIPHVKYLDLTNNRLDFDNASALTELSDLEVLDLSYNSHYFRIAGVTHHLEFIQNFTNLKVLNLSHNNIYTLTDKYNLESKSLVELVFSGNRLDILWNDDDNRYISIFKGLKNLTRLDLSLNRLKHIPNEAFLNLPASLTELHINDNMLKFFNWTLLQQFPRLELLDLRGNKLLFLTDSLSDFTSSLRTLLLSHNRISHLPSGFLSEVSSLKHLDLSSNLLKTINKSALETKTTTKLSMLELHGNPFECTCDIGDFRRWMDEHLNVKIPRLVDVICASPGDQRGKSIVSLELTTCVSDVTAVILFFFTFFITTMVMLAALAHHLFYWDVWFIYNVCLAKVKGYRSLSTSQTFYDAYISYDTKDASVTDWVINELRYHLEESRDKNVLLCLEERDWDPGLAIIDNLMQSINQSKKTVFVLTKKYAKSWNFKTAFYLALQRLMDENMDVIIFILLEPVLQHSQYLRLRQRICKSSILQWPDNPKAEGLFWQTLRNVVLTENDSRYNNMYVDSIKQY
Procedure: The following tests were carried out in order to determine the activity of the compounds of formula (I) in HEK293-Blue-hTLR-7/8/9 cells assay.
A stable HEK293-Blue-hTLR-8 cell line was purchased from InvivoGen (Cat.#: hkb-htlr8, San Diego, California, USA). These cells were originally designed for studying the stimulation of human TLR8 by monitoring the activation of NF-κB. A SEAP (secreted embryonic alkaline phosphatase) reporter gene was placed under the control of the IFN-β minimal promoter fused to five NF-κB and AP-1-binding sites. The SEAP was induced by activating NF-κB and. AP-1 via stimulating HEK-Blue hTLR8 cells with TLR8 ligands. Therefore the reporter expression was declined by TLR8 antagonist under the stimulation of a ligand, such as R848, for incubation of 20 hrs. The cell culture supernatant SEAP reporter activity was determined using QUANTI-Blue™ kit (Cat.#: rep-qb1, Invivogen, San Diego, Ca, USA) at a wavelength of 640 nm, a detection medium that tunas purple or blue in the presence of alkaline phosphatase.
HEK293-Blue-hTLR8 cells were incubated at a density of 250,000˜450,000 cells/mL in a volume of 170 μL in a 96-well plate in Dulbecco's Modified Eagle's medium (DMEM) containing 4.5 g/L glucose, 50 U/mL penicillin, […], […], 2 mM L-glutamine, 10% (v/v) heat-inactivated fetal bovine serum with addition of 20 μL test compound in a serial dilution in the presence of final DMSO at 1% and 10 μL of 60 uM R848 in above DMEM, perform incubation under 37° C. in a CO2 incubator for 20 hrs. Then 20 μL of the supernatant from each well was incubated with […] Quanti-blue substrate solution at 37° C. for 2 hrs and the absorbance was read at 620-655 nm using a spectrophotometer. The signalling pathway that TLR8 activation leads to downstream NF-κB activation has been widely accepted, and therefore similar reporter assay was modified for evaluating TLR8 antagonist.

CYP2D6 = biological target: T2, CYP2D6 (Homo sapiens, UniProt P10635); test: CYP inhibition assay in human liver microsome; format: in vitro ADME; conditions: liver microsomes, probe dextromethorphan, 10 μM compound, dextromethorphan substrate, percentage inhibition < 0: not or weak inhibitor, read-out: CYP 2D6 inhibition % @10 μM
T2 construct: tissue BD-Gentest 452117; host or cells: human liver microsomes
T2 sequence (P10635 whole entry): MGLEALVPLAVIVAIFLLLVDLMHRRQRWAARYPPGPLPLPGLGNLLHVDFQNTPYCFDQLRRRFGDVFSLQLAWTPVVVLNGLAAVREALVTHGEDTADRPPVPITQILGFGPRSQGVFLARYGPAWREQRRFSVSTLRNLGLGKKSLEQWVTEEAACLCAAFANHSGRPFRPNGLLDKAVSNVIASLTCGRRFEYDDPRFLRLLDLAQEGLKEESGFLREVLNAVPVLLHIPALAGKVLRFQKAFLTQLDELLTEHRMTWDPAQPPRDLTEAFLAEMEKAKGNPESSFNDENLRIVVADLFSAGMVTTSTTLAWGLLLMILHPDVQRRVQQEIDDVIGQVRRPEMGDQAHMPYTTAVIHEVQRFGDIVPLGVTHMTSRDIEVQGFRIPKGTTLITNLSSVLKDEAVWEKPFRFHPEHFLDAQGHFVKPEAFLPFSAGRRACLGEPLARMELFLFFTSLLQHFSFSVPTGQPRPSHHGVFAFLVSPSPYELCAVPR
Procedure: This is a high throughput screening assay used for assessment of reversible inhibition of CYP2D6 activity of test compounds in human liver microsome (HLM) in early discovery stage.
10 mM DMSO stock solutions of test compounds were diluted in DMSO to generate 2 mM intermediate stock solution. 250 nL of intermediate stock solution were transferred in duplicate into 3 separate 384 well microtitre plates (assay-ready plates). A mixture of HLM and each substrate was made up. 45 μL of HLM substrate mix was then transferred to each well of an assay ready plate and mixed. The negative (solvent) and positive control (standard inhibitor for CYP 2D6) were included in each assay ready plate. The assay ready plate was warmed to 37° C. in an incubator over 10 minutes. 5μL pre-warmed NADPH regenerating system was added to each incubation well to start the reaction. Final incubation volume was 50 μL. The assay plate then was placed back in the 37° C. incubator. After 10 minutes incubation, incubates were quenched by addition of 50 μL 100% acetonitrile containing internal standards (20 ng/mL D3-Dextrorphan). The supernatants were collected for RapidFire/MS/MS analysis.
RapidFire online solid phase extraction/sample injection system (Agilent) coupled with API4000 triple quadrupole mass spectrometer (AB Sciex) were used for sample analysis. The mobile phase composed of acetonitrile and water supplemented with 0.1% formic acid. A C4 solid phase extraction cartridge is used for sample separation. MS detection is achieved in positive ion MRM mode.
Peak areas for substrate, metabolite and internal standard are determined using the RapidFire integrator software (version 3.6.12009.12296). Peak area ratios (PAR) of metabolite and internal standard (stable-labelled metabolite) are then calculated. The measurement window for each experiment is then defined:
PAR (0% activity)=average PAR for all incubations containing concentrated inhibitor;
Par (100% activity)=average PAR for all incubations containing no inhibitor (DMSO controls);
% Activity (test inhibitor)
=[PAR(test inhibitor)-PAR(0% activity)]/[PAR(100% activity)-PAR(0% activity)];
% Inhibition (test inhibitor)=100-% Activity (test inhibitor).

| SMILES | IC50 (human TLR8) [nM] | inhibition at 10 min, 10 µM (CYP2D6) [%] |
| --- | --- | --- |
| CC1CN(c2ccc(C#N)c3ncccc23)CCN1CC(=O)Nc1ccc2c(c1)CCNC2 (stereo not shown) [Example 18, 2-[4-(8-Cyano-5-quinolyl)-2-methyl-piperazin-1yl]-N-(1,2,3,4-tetrahydroisoquinolin-6-yl)acetamide] | 40 | 12.5 |
| CC1CN(c2ccc(C#N)c3ncccc23)CCN1CC(=O)N1CCC(C2CCN(C)CC2)CC1 (stereo not shown) [Example 19, 5-[3-methyl-4-[2-[4-(1-methyl-4-piperidyl)-1-piperidyl]-2-oxo-ethyl]piperazin-1-yl]quinoline-8-carbonitrile] | 93 | 14.5 |
